Values quoted from earlier work in publication PMC9120017, “Inhibition mechanism of the chloride channel TMEM16A by the pore blocker 1PBC” (Nature Communications, 2022).

Test system: TMEM16A
Conditions: cited from earlier work

SMILES	Inhibition of TMEM16A	Selectivity for anion channels of the TMEM16 family over the scramblase TMEM16F
O=C(O)c1c2ccccc2cc2ccccc12 [9-AC, 9-anthracene carboxylate]	inhibit TMEM16A	–
O=S(=O)(O)c1cc(N=C=S)ccc1C=Cc1ccc(N=C=S)cc1S(=O)(=O)O [DIDS, 4,4′-Diisothiocyanato-2,2′-stilbenedisulfonic acid]	inhibit TMEM16A	–
O=C(O)c1cccnc1Nc1cccc(C(F)(F)F)c1 [NFA]	–	selective for anion channels of the TMEM16 family over the scramblase TMEM16F
O=C(O)c1cc([N+](=O)[O-])ccc1NCCCc1ccccc1 [NPPB]	–	selective for anion channels of the TMEM16 family over the scramblase TMEM16F
O=C(Nc1ccc([N+](=O)[O-])cc1Cl)c1cc(Cl)ccc1O [niclosamide]	inhibit TMEM16A	–
